Patent US20100093715A1, “Plant productivity enhancement by combining chemical agents with transgenic modifications” (BASF SE, priority 2007, published 2010)

What was measured:
[1] = test system: J553x(HIIIAxA188) null and transgenic corn; test: Fipronil/Pyraclostrobin study, second trial: seed treatment, greenhouse growth, LemnaTec Scanalyzer imaging; format: in vivo, maize (Zea Mays L.)
Description: (§1) J553x(HIIIAxA188) null and transgenic corn seeds of the T2 generation were treated with deionized water (Blank), 200 grams fipronil, 10 grams pyraclostrobin (F500), and 200 grams fipronil+10 grams pyraclostrobin; all formulation rates were grams/100 kg seed. Every formulation was applied to approximately 80 seeds. The formulation was pipetted into a 125 ml flask along the sides and bottom of the flask before adding the seeds and shaking the flask for 30 seconds. The coated seeds were then removed from the flask and placed in a plastic dish for drying.
(§2) Seventy-five 3-L pots per treatment (Blank, fipronil, pyraclostrobin, and fipronil+pyraclostrobin) were filled with potting media, labeled with colored stakes, and given a unique barcode. One seed per pot was planted at a depth of approximately 2 cm and covered with media. The media was lightly watered to imbibe the seeds, while allowing for ample oxygen exchange and so that the chemical coatings on the seeds remained intact. After planting, the pots were randomly distributed into three replicate blocks (1 bench=1 block), each with 25 plants of every treatment.
(§3) The plants were maintained in a greenhouse under optimal, well-watered conditions (80-90% field capacity) upon emergence. Supplemental nutrients were administered every third day during watering. The greenhouse temperature was maintained at 30° C., relative humidity at 75%, and light at 350 μmol m^−2s^−1, in a 15-hour day/9-hour night photoperiod. Supplemental lighting was provided using metal-halide lights. Once per week, the pots were randomly mixed within each block.
(§4) On day 21, the plants were imaged to collect the phenotypic data as described in the Imaging Procedures section. Leaves were sampled for transgene copy number on day 25 to identify the null and transgenic plants. On day 28, the plants were imaged and then harvested to collect fresh weight. The presence of the transgene was determined by the Taqman molecular analysis technique. Differences in the phenotypic data collected during the imaging process and in fresh weight among the four treatments and between the null and transgenic plants were assessed. The chemical by transgenic interactions were determined.
(§5) Imaging of the plants was facilitated using a LemnaTec Scanalyzer (Würselen, Germany), which includes a conveyor belt, an imaging station, a watering station, and computers for collecting, processing, and storing the image data. The cameras have a resolution of 1280×960 pixels and operate in 24-bit color.
(§6) The plants were manually transferred by block onto the conveyor system of the scanalyzer. Each plant was then moved through the imager automatically. At the imaging station, cameras collected the top view image and two side view images. The side view images were the transverse view and the view parallel with the plane of the plant.
(§7) As described in the formula (see Appendix A), the scanalyzer calculates plant volume as a number of pixels. To assign a physiologically meaningful value to the volume measurements, a separate experiment was conducted. The plants were scanned with the scanalyzer then harvested. The plant material was placed into a graduated cylinder filled to a known volume with water. The difference between the water plus plant material and water alone provided a known plant volume in mL.
(§8) Using the LemnaTec scanalyzer, we collected stem width; stalk volume; top, transverse, and parallel view plant areas; top, transverse, and parallel view green and yellow pixel counts; stem length; leaf angles and internode lengths through leaf 5; plant width and height; total leaf length; and total plant length.
(§9) Fresh Weight—A measurement of the fresh weight of the plant in grams. Hand-collected fresh weight is measured by harvesting the plant and weighing it on a balance. LemnaTec fresh weight is calculated by the scanalyzer based on plant volume and plant age. The zoom angles of the camera lenses are normalized using a calibration table. […]

[2] = test system: J553x(HIIIAxA188) null and transgenic corn; test: Fipronil/Pyraclostrobin study, initial trial: seed treatment, greenhouse growth, LemnaTec Scanalyzer imaging and harvest; format: in vivo, maize (Zea Mays L.); details: for Internode 1 length / Internode 2 length / Internode 3 length: seed treatment; for Fresh Weight: hand-collected
Description: as §1, §2, §3, §4, §5, §6, §7, §8, §9

For `COC(=O)N(OC)c1ccccc1COc1ccn(-c2ccc(Cl)cc2)n1` [F500, pyraclostrobin], the “Plant volume, significance of treatment” value [1] was “significant at 99%”, the “dark green pixel count, significance of treatment” value [1] was “significant at 99%” and the “Broad Side Drk Grn” value ([1]; Avg) was 26984.96 pixels. The “Broad Side Plnt Area” value ([1]; Avg) was 38169.74 pixels, the “Calc Fresh Weight” value ([1]; Avg) was 105.47 g and the “Narrow Side Drk Grn” value ([1]; Avg) was 27393.61 pix. The “Plant Volume” value ([1]; Avg) was 10.47 M pixels, the “Top Drk Grn” value ([1]; Avg) was 59991.92 pixels and the “Broad Side Drk Grn” value ([1]; Null plants) was 26088.87 pixels. For the same compound, the “Broad Side Plnt Area” value ([1]; Null plants) was 36740.30 pixels, the “Calc Fresh Weight” value ([1]; Null plants) was 100.53 g and the “Narrow Side Drk Grn” value ([1]; Null plants) was 26394.93 pix. For the same compound, the “Plant Volume” value ([1]; Null plants) was 9.90 M pixels, the “Top Drk Grn” value ([1]; Null plants) was 57676.78 pixels and the “Broad Side Drk Grn” value ([1]; Trans plants) was 27881.04 pixels. The “Broad Side Plnt Area” value ([1]; Trans plants) was 39599.17 pixels, the “Calc Fresh Weight” value ([1]; Trans plants) was 110.41 g and the “Narrow Side Drk Grn” value ([1]; Trans plants) was 28392.28 pix. The “Plant Volume” value ([1]; Trans plants) was 11.04 M pixels, the “Top Drk Grn” value ([1]; Trans plants) was 62307.07 pixels and the “photosynthetic health (in words)” value ([1]; in general) was “enhanced”. The “plant size (in words)” value ([1]; in general) was “enhanced”, the “# Fully Expanded Leaves” value ([2]; Avg) was 3.0 and the “Leaf Angle 0” value ([2]; Avg) was 46.6 degrees. For the same compound, the “Leaf Angle 1” value ([2]; Avg) was 37.4 degrees, the “Plant Volume” value ([2]; Avg) was 6.43E+06 pixels and the “Stem Length” value ([2]; Avg) was 104.4 cm. The “stalk area from the transverse view, Pixel Count” value (“stalk area” for short) ([2]; Avg) was 4724 pixels, the “Internode 1 length” value ([2]; Avg of null and transgenic) was 34.3 cm and the “Internode 2 length” value ([2]; Avg of null and transgenic) was 38.4 cm. The “Internode 3 length” value ([2]; Avg of null and transgenic) was 40.7 cm, the “# Fully Expanded Leaves” value ([2]; Null plants) was 2.9 and the “Leaf Angle 0” value ([2]; Null plants) was 39.2 degrees. The “Leaf Angle 1” value ([2]; Null plants) was 36.5 degrees, the “Plant Volume” value ([2]; Null plants) was 6.18E+06 pixels and the “Stem Length” value ([2]; Null plants) was 97.2 cm. The “stalk area” value ([2]; Null plants) was 4725 pixels, the “Internode 1 length” value ([2]; Null plants) was 32.5 cm and the “Internode 2 length” value ([2]; Null plants) was 36.0 cm. For the same compound, the “Internode 3 length” value ([2]; Null plants) was 38.8 cm, the “Internode 1 length” value ([2]; Trans (transgenic) plants) was 35.9 cm and the “Internode 2 length” value ([2]; Trans (transgenic) plants) was 40.4 cm. For the same compound, the “Internode 3 length” value ([2]; Trans (transgenic) plants) was 42.1 cm, the “# Fully Expanded Leaves” value ([2]; Trans plants) was 3.1 and the “Leaf Angle 0” value ([2]; Trans plants) was 52.5 degrees. The “Leaf Angle 1” value ([2]; Trans plants) was 38.2 degrees, the “Plant Volume” value ([2]; Trans plants) was 6.63E+06 pixels and the “Stem Length” value ([2]; Trans plants) was 110.2 cm. For the same compound, the “stalk area” value ([2]; Trans plants) was 4723 pixels, the “Fresh Weight” value ([2]; Avg) was 155.3 grams and the “Fresh Weight” value ([2]; Null plants) was 155.7 grams. The “Fresh Weight” value ([2]; Trans plants) was 155.0 grams, the “Dark Green Count” value ([2]; parallel view, Avg) was 14884.7 pixels and the “Medium Green Count” value ([2]; parallel view, Avg) was 6153.1 pixels. The “Plant Area” value ([2]; parallel view, Avg) was 23089.7 pixels, the “Yellow Count” value ([2]; parallel view, Avg) was 2051.9 pixels and the “Dark Green Count” value ([2]; parallel view, Null plants) was 14727.7 pixels. The “Medium Green Count” value ([2]; parallel view, Null plants) was 5691.8 pixels, the “Plant Area” value ([2]; parallel view, Null plants) was 22426.2 pixels and the “Yellow Count” value ([2]; parallel view, Null plants) was 2006.6 pixels. The “Dark Green Count” value ([2]; parallel view, Trans plants) was 15010.4 pixels, the “Medium Green Count” value ([2]; parallel view, Trans plants) was 6522.1 pixels and the “Plant Area” value ([2]; parallel view, Trans plants) was 23620.6 pixels. The “Yellow Count” value ([2]; parallel view, Trans plants) was 2088.1 pixels, the “Medium Green Count” value ([2]; top view, Avg) was 18542 pixels and the “Medium Green Count” value ([2]; top view, Null plants) was 17893 pixels. The “Medium Green Count” value ([2]; top view, Trans plants) was 19062 pixels, the “Medium Green Count” value ([2]; transverse view, Avg) was 9584.5 pixels and the “Yellow Count” value ([2]; transverse view, Avg) was 4227.2 pixels. For the same compound, the “Medium Green Count” value ([2]; transverse view, Null plants) was 9303.7 pixels, the “Yellow Count” value ([2]; transverse view, Null plants) was 4081.7 pixels and the “Medium Green Count” value ([2]; transverse view, Trans plants) was 9809.2 pixels. For the same compound, the “Yellow Count” value ([2]; transverse view, Trans plants) was 4343.5 pixels.
